From PMC11995724, “Antibiotic target discovery by integrated phenotypic and activity-based profiling of electrophilic fragments” (Cell chemical biology, 2025)
Counter-ions that a name gives are not always drawn.

assay: in vitro; details: human, hek293t cells

Compound | viability at 48 h, 25 µM
CC(Cl)C(=O)NC1CCc2nc(-c3cc(F)ccc3F)cn2C1 (centres unmarked) [7-K10, 2-chloro-N-[2-(2,5-difluorophenyl)-5H,6H,7H,8H-imidazo[1,2-a]pyridin-6-yl]propanamide] | 77.5%
CC(Cl)C(=O)Nc1cccc(-c2ncc3n2CCCC3)c1 (centres unmarked) [5-F19, 2-chloro-N-(3-{5H,6H,7H,8H-imidazo[1,5-a]pyridin-3-yl}phenyl)propanamide] | 95.8%
C=CC(=O)NC1CCC(n2c(C)ccc2C)CC1 (centres unmarked) [2-E19, N-[4-(2,5-dimethyl-1H-pyrrol-1-yl)cyclohexyl]prop-2-enamide] | 71.1%
Cc1nn(CCC(=O)N2CCSSCC2)c(C)c1[N+](=O)[O-] [10-J05, 3-(3,5-dimethyl-4-nitro-1H-pyrazol-1-yl)-1-(1,2,5-dithiazepan-5-yl)propan-1-one] | 96.8%
CC(Cl)C(=O)Nc1cc(Cl)c(Cl)cc1Cl (centres unmarked) [4-N13, 2-chloro-N-(2,4,5-trichlorophenyl)propanamide] | 71.7%
Cc1cccc(-n2c(C)cc(C(=O)CCl)c2C)c1 [10-A22, 2-chloro-1-[2,5-dimethyl-1-(3-methylphenyl)-1H-pyrrol-3-yl]ethan-1-one] | 0.013%
C=CC(=O)Nc1ccc(C(F)C(F)(F)F)cc1 (centres unmarked) [1-O20, N-[4-(1,2,2,2-tetrafluoroethyl)phenyl]prop-2-enamide] | 85.4%
C=CC(=O)NCc1ccc(C(=O)N2CCNC(=O)CC2)cc1 [3-I04, N-{[4-(5-oxo-1,4-diazepane-1-carbonyl)phenyl]methyl}prop-2-enamide] | 93.2%
N#CC(=Cc1cccc2ccccc12)C(=O)Nc1ccccc1Cl [8-K11, N-(2-chlorophenyl)-2-cyano-3-(naphthalen-1-yl)prop-2-enamide] | 80.5%
C=CC(=O)N1CCCC(CNS(=O)(=O)C2CC2)C1 (centres unmarked) [3-G21, N-{[1-(prop-2-enoyl)piperidin-3-yl]methyl}cyclopropanesulfonamide] | 50.6%
O=C(CCl)c1ccc2c(c1)-c1ccccc1C2 [10-H17, 2-chloro-1-(9H-fluoren-3-yl)ethan-1-one] | 51.2%
Cc1cc(C(=O)CCl)c(C)n1-c1ccc(C(C)C)cc1 [10-J12, 2-chloro-1-{2,5-dimethyl-1-[4-(propan-2-yl)phenyl]-1H-pyrrol-3-yl}ethan-1-one] | 0.754%
C=CC(=O)N(Cc1ccc(F)cn1)c1cnn(C2CCCC2)c1C [1-D11, N-(1-cyclopentyl-5-methyl-1H-pyrazol-4-yl)-N-[(5-fluoropyridin-2-yl)methyl]prop-2-enamide] | 97.3%
COc1cc(C)c(C(C)NC(=O)CCl)cc1OC (centres unmarked) [6-M09, 2-chloro-N-[1-(4,5-dimethoxy-2-methylphenyl)ethyl]acetamide] | 3.89%
CC(C)Oc1ccccc1C=C(C#N)C(=O)Nc1ccccc1Cl [9-N20, N-(2-chlorophenyl)-2-cyano-3-[2-(propan-2-yloxy)phenyl]prop-2-enamide] | 104%
CC(Cl)C(=O)N1CCn2cccc2C1c1ccccc1 (centres unmarked) [7-E11, 2-chloro-1-{1-phenyl-1H,2H,3H,4H-pyrrolo[1,2-a]pyrazin-2-yl}propan-1-one] | 97.1%
C=CC(=O)N1CCC(C(=O)Nc2cccc(NC(=O)C(C)C)c2)CC1 [3-F05, N-[3-(2-methylpropanamido)phenyl]-1-(prop-2-enoyl)piperidine-4-carboxamide] | 53.3%
CC(=O)c1c(C)[nH]c(C(=O)C(C)Cl)c1C (centres unmarked) [10-P22, 1-(4-acetyl-3,5-dimethyl-1H-pyrrol-2-yl)-2-chloropropan-1-one] | 103%
Cc1ccc(NC(=O)C(C#N)=Cc2ccc(OC(F)F)cc2)c(C)c1 [9-G19, 2-cyano-3-[4-(difluoromethoxy)phenyl]-N-(2,4-dimethylphenyl)prop-2-enamide] | 90.4%
C=CC(=O)Nc1cc(C)c(CC)cc1OC [3-O06, N-(4-ethyl-2-methoxy-5-methylphenyl)prop-2-enamide] | 82%
CC(C)Oc1ccc(C=C(C#N)C(=O)NC2CCCC2)cc1 [8-O10, 2-cyano-N-cyclopentyl-3-[4-(propan-2-yloxy)phenyl]prop-2-enamide] | 57.5%
C=CC(=O)NCc1ccnn1C1CCCC1 [3-H21, N-[(1-cyclopentyl-1H-pyrazol-5-yl)methyl]prop-2-enamide] | 74.5%
C=CC(=O)N(Cc1ccc(Cl)o1)C1CCCC12CCOCC2 (centres unmarked) [2-K05, N-[(5-chlorofuran-2-yl)methyl]-N-{8-oxaspiro[4.5]decan-1-yl}prop-2-enamide] | 99.7%
C=CC(=O)N1CCOC2(CCCC2)C1 [3-I11, 1-{6-oxa-9-azaspiro[4.5]decan-9-yl}prop-2-en-1-one] | 44.3%
CCCCNC(=O)C(C#N)=Cc1cccs1 [9-E17, N-butyl-2-cyano-3-(thiophen-2-yl)prop-2-enamide] | 117%
C=CC(=O)N1CCCC(Oc2ccnc(C(=O)NC)c2)C1 (centres unmarked) [2-L22, N-methyl-4-{[1-(prop-2-enoyl)piperidin-3-yl]oxy}pyridine-2-carboxamide] | 99.6%
Cc1ccc(NC(=O)C(C#N)=CC2=Cc3ccccc3OC2)cc1 [9-B19, 3-(2H-chromen-3-yl)-2-cyano-N-(4-methylphenyl)prop-2-enamide] | 119%

Compound | viability at 48 h, 25 µM
O=C(CCl)NOCc1ccccc1 [4-H22, N-(benzyloxy)-2-chloroacetamide] | 63.3%
C=CC(=O)Nc1ncnc2c1cnn2Cc1cccc(C)c1 [1-M21, N-{1-[(3-methylphenyl)methyl]-1H-pyrazolo[3,4-d]pyrimidin-4-yl}prop-2-enamide] | 100%
O=C(CCl)NCCCc1ccccc1 [4-N04, 2-chloro-N-(3-phenylpropyl)acetamide] | 50.6%
CC(Cl)C(=O)NC1CCCc2c1cnn2Cc1ccccc1 (centres unmarked) [7-G13, N-(1-benzyl-4,5,6,7-tetrahydro-1H-indazol-4-yl)-2-chloropropanamide] | 87.2%
Cc1ccc(NC(=O)C(C#N)=Cc2ccc(C)s2)c(C)c1 [8-D09, 2-cyano-N-(2,4-dimethylphenyl)-3-(5-methylthiophen-2-yl)prop-2-enamide] | 99.2%
CCCCNC(=O)C(C#N)=Cc1ccncc1 [8-P17, N-butyl-2-cyano-3-(pyridin-4-yl)prop-2-enamide] | 115%
CC(Cl)C(=O)NCCc1ccnn1C (centres unmarked) [7-I21, 2-chloro-N-[2-(1-methyl-1H-pyrazol-5-yl)ethyl]propanamide] | 92.3%
CC(Cl)C(=O)NC(=O)NCc1cccs1 (centres unmarked) [6-E05, 3-(2-chloropropanoyl)-1-[(thiophen-2-yl)methyl]urea] | 106%
C=CC(=O)N1CCCCC1C1CCCO1 (centres unmarked) [2-L21, 1-[2-(oxolan-2-yl)piperidin-1-yl]prop-2-en-1-one] | 66.2%
N#CC(=Cc1c[nH]c2ccccc12)C(=O)Nc1cccc2ncccc12 [9-N08, 2-cyano-3-(1H-indol-3-yl)-N-(quinolin-5-yl)prop-2-enamide] | 101%
CC1(C)C(=O)Nc2ccc(C(=O)CCl)cc21 [10-N21, 5-(2-chloroacetyl)-3,3-dimethyl-2,3-dihydro-1H-indol-2-one] | 73.1%
CCCCNC(=O)C(C#N)=Cc1cc(C)c(O)c(C)c1 [9-E09, N-butyl-2-cyano-3-(4-hydroxy-3,5-dimethylphenyl)prop-2-enamide] | 111%
C=CC(=O)N1CCC(C(=O)Nc2nc3cc(F)c(C)cc3s2)CC1 [2-K15, N-(5-fluoro-6-methyl-1,3-benzothiazol-2-yl)-1-(prop-2-enoyl)piperidine-4-carboxamide] | 191%
CC(=O)Nc1ccc(C(=O)C(C)Cl)cc1 (centres unmarked) [10-K06, N-[4-(2-chloropropanoyl)phenyl]acetamide] | 101%
C=CC(=O)NCC(F)(F)C1(OC)CCC1 [3-L07, N-[2,2-difluoro-2-(1-methoxycyclobutyl)ethyl]prop-2-enamide] | 82.7%
CN(C)c1nc(N2CCOCC2)ncc1NC(=O)CCl [5-M22, 2-chloro-N-[4-(dimethylamino)-2-(morpholin-4-yl)pyrimidin-5-yl]acetamide] | 38.9%
CC(Cl)C(=O)Nc1ccc(N(C)C)cc1 (centres unmarked) [5-N04, 2-chloro-N-[4-(dimethylamino)phenyl]propanamide hydrochloride] | 99.3%
C=CC(=O)N(Cc1cc(F)c(F)c(F)c1)C(C)C1CCCO1 (centres unmarked) [1-L13, N-[1-(oxolan-2-yl)ethyl]-N-[(3,4,5-trifluorophenyl)methyl]prop-2-enamide] | 176%
N#CC(=Cc1ccc(O)cc1)C(=O)NCc1ccco1 [9-N10, 2-cyano-N-[(furan-2-yl)methyl]-3-(4-hydroxyphenyl)prop-2-enamide] | 103%
CCCCNC(=O)C(C#N)=Cc1ccc(F)cc1F [8-H14, N-butyl-2-cyano-3-(2,4-difluorophenyl)prop-2-enamide] | 103%
CC(Cl)C(=O)N1CCNC(=O)C1c1c(F)cccc1Cl (centres unmarked) [6-D07, 3-(2-chloro-6-fluorophenyl)-4-(2-chloropropanoyl)piperazin-2-one] | 107%
Cc1ccc(C=C(C#N)C(=O)Nc2nccs2)s1 [8-P13, 2-cyano-3-(5-methylthiophen-2-yl)-N-(1,3-thiazol-2-yl)prop-2-enamide] | 109%
CC(Cl)C(=O)NCC1c2ccccc2C(=O)N1Cc1ccccc1 (centres unmarked) [6-H20, N-[(2-benzyl-3-oxo-2,3-dihydro-1H-isoindol-1-yl)methyl]-2-chloropropanamide] | 107%
CCSc1nnc(NC(=O)CCl)s1 [5-N22, 2-chloro-N-[5-(ethylsulfanyl)-1,3,4-thiadiazol-2-yl]acetamide] | 7.36%
Cc1cc(C)n2c(-c3c(Cl)cccc3NC(=O)CCl)nnc2n1 [5-M16, 2-chloro-N-(3-chloro-2-{5,7-dimethyl-[1,2,4]triazolo[4,3-a]pyrimidin-3-yl}phenyl)acetamide] | 1.81%
CC(Cl)C(=O)N1CC(Oc2ccc(C#N)cc2)C1 (centres unmarked) [6-J15, 4-{[1-(2-chloropropanoyl)azetidin-3-yl]oxy}benzonitrile] | 97.1%
